Source: US20250002918A1, “COMPOSITIONS AND METHODS FOR TREATMENT OF MIC60 DEPLETED CANCERS AND METASTASIS” (The Wistar Institute of Anatomy and Biology, priority 2021, published 2025)

Key:
[1] = tested on: PC3 cells stably transduced with pLKO or Mic60-directed shRNA (shMic60); test: Small-molecule drug screening, cell viability (CellTiterGlo); details: drug screen, 72-h incubation, based on IC50 values (FIG. 4A, 4B)
Description: (§1) FIG. 4A-FIG. 4I show therapeutic vulnerability of GCN2/Akt signaling exposed by Mic60 depletion. (FIG. 4A and FIG. 4B) PC3 cells transduced with pLKO or shMic60 were analyzed in a high-throughput drug screening (FIG. 4A), and candidate compounds with differential tumor cell killing in shCtrl- or shMic60-transduced cultures (FIG. 4B) were analyzed based on IC50 values (nM). (FIG. 4C) PC3 cells transfected with siMic60 were analyzed for differential ISR gene expression by RNA-Seq. A representative experiment is shown. (FIG. 4D) PC3 cells transfected with siCtrl or siMic60 were analyzed by Western blotting. p, phosphorylated. (FIG. 4E) PC3 cells as in FIG. 4A and FIG. 4B were transfected with ATF4-mScarlet nuclear reporter gene and analyzed by flow cytometry in two independent experiments (Exp). The percentage of cells in gated regions is indicated. (FIG. 4F) Kaplan-Meier survival curves for differential expression of DDIT3 or ATF4 in Mic60-low GBM or pan-kidney cancer cohort comprising kidney chromophobe, kidney renal clear cell carcinoma, and kidney renal papillary cell carcinoma (KIPAN) in the Human Protein Atlas database. The number of patients per each condition and P values are indicated. (FIG. 4G) PC3 cells as in FIG. 4A and FIG. 4B were incubated with vehicle (Veh) or GCN2-IN-1 small-molecule inhibitor to GCN2 and analyzed for Annexin V/PI staining by multiparametric flow cytometry. The percentage of cells in each quadrant is indicated in a representative experiment (n=2). (FIG. 4H) PC3 cells were transfected with siCtrl or GCN2-directed siRNA (siGCN2) and analyzed by Western blotting. (FIG. 4I) PC3 cells were transfected with siCtrl or GCN2-directed siRNA (siGCN2) and analyzed for cell death by Trypan blue exclusion and light microscopy after 72 h. Mean±SD.
Cell viability screening against the MedChem Express anti-cancer library (1,820 compounds) was performed using CellTiterGlo (Promega). PC3 cells stably transduced with pLKO or Mic60-directed shRNA (shMic60) were maintained in complete media, trypsinized, and plated (500 cells/well) in 40 μL of complete medium the day before the experiment in white, clear-bottom 384-well plates. A total of 50 nL of test compound was added to each well using the Janus MDT Nanohead (Perkin-Elmer). Each compound was screened at a final concentration of 10, 1, 0.1, and 0.01 μM. After a 72-h incubation at 37° C. in the presence of 5% CO2, 20 μL of the CellTiterGlo reagent was added to each well. After 15 min, luminescence was measured using the Envision Multimode plate reader (PerkinElmer). The raw data were normalized to % inhibition, where 0% is the relative light units (RLU) in the presence of dimethylsulfoxide, and 100% is the RLU in the presence of 1 μM bortezomib. Estimated half maximal inhibitory concentration (IC50) values for each compound were determined using nonlinear regression fits on the data to a one-site binding model in XlFit (ID Business Solutions Ltd. [IDBS]). Because only 4 data points were used in this calculation, the top and bottom of the curve was fixed to 100% and 0%, respectively, with a constant slope value of 1.

[2] = tested on: PC3 cells transduced with pLKO or shMic60; test: Tumor cell proliferation; assay type: cell-based; details: for suppression of proliferation, Mic60-depleted vs control transfectants: PC3 cells
[3] = tested on: Mic60-silenced tumor cells; test: Focal adhesion (FA) dynamics after Mic60 silencing; assay type: cell-based
LN229 cells = test: Single-cell motility by time-lapse videomicroscopy; assay type: cell-based; details: Mic60-silenced LN229 cells vs control transfectants
Description: (§2) Cells ([…]) were seeded in 4-well Ph+ Chambers (Ibidi) in complete growth medium and allowed to attach for 16 h at 37° C. Time-lapse videomicroscopy was performed over 10 h, with a time-lapse interval of 10 min. Stacks were imported into Image J Fiji software for analysis, and at least 10 to 20 cells per condition were tracked using the Manual Tracking plugin for Image J Fiji. Tracking data were exported into the Chemotaxis and Migration Tool v. 2.0 (Ibidi) for graphing and calculation of the mean and SD of speed and accumulated distance of movement. For directional cell migration, wounds were made in monolayers of PC3 cells using a 10-μL pipette tip. Cell debris were washed off, and cultures were maintained in complete growth medium containing 10% fetal bovine serum at 37° C. and 5% CO2. Time-lapse imaging of migrating cells was performed using a TE300 inverted microscope (Nikon) equipped with an incubator set at 37° C., 5% CO2, and 95% relative humidity. Each image was acquired using a 10× objective of the same fields at each 10-min interval for a total of 24 h.

PC3 cells = test: Single-cell motility by time-lapse videomicroscopy; assay type: cell-based; details: Mic60-silenced PC3 cells vs control transfectants
Description: as §2

[4] = tested on: PC3 cells transduced with pLKO or shMic60; test: Annexin V/PI staining by multiparametric flow cytometry; assay type: cell-based; details: preferentially in Mic60-silenced PC3 cells compared to control cultures (FIG. 4G)
Description: as §1, with “(FIG. 4F) Kaplan-Meier survival curves for differential expression of DDIT3 or ATF4 in Mic60-low GBM or pan-kidney cancer cohort comprising kidney chromophobe, kidney renal clear cell carcinoma, and kidney renal papillary cell carcinoma (KIPAN) in the Human Protein Atlas database. The number of patients per each condition and P values are indicated.” left out, “The percentage of cells in each quadrant is indicated in a representative experiment (n=2).” left out, “Mean±SD.” left out

[5] = tested on: PC3 cells transduced with pLKO or shMic60; test: Caspase-dependent cell death; assay type: cell-based
Mic60-silenced cells = test: Tumor cell invasion (Matrigel); assay type: cell-based; details: Mic60-silenced cells reconstituted with the scavenger
Description: FIG. 3A-FIG. 3G show Mic60 regulation of tumor cell motility and metastasis. (FIG. 3A) PC3 cells transduced with pLKO or shMic60 were analyzed for circularity (Top; 1=perfect sphere) and surface area (Bottom). Each symbol corresponds to an individual determination. Min to max values are indicated (pLKO, n=36; shMic60, n=39). *** P<0.0001 to 0.0009. (FIG. 3B) PC3 cells as in FIG. 3A were analyzed by Western blotting. (FIG. 3C) PC3 cells transduced with pLKO or shMic60 were analyzed for single-cell motility in 2D contour plots by time-lapse video microscopy. Each tracing corresponds to the movements of an individual cell (pLKO, n=90; shMic60, n=94). The average speed of cell movements (velocity [Vel], μm/min) and distance traveled (Dis; μm) are indicated. Mean±SD (n=3). P<0.0001. […] (FIG. 3D) PC3 cells as in FIG. 3A or WT or Mic60 KO PC3 cells were analyzed for invasion across Matrigel-coated inserts and quantified. […] (FIG. 3F) PC3 cells as in FIG. 3A were injected into the spleen of NSG mice, and liver samples harvested after 11 d were stained with hematoxylin/eosin, and the number (FIG. 3F, Top) and surface area (FIG. 3F, Bottom) of metastatic foci were quantified by morphometry. […] (FIG. 3G) Matched patient samples of LUAD representative of normal parenchyma (N), primary tumor (P), or metastasis (M) were analyzed for differential Mic60 expression by RT-PCR. […]

O=c1[nH]c2ccccc2n1C1CCN(Cc2ccc(-c3nc4cc5[nH]cnc5cc4nc3-c3ccccc3)cc2)CC1 [Akt inhibitor VIII]
differential tumor cell killing, Mic60-silenced vs control cultures [1]: killed Mic60-silenced PC3 cells more efficiently than control cultures | suppression of proliferation, Mic60-depleted vs control transfectants [2]: suppressed proliferation selectively of Mic60-depleted PC3 cells

CN(c1ncccc1CNc1nc(Nc2ccc3c(c2)CC(=O)N3)ncc1C(F)(F)F)S(C)(=O)=O [FAKi]
FA dynamics [3]: normalized FA dynamics | single-cell motility (LN229 cells): restored the single-cell motility of PC3 or LN229 cells to levels of control transfectants | single-cell motility (PC3 cells): restored the single-cell motility of PC3 or LN229 cells to levels of control transfectants

c1nn(C2CCOCC2)cc1Nc1ncc2nnn(-c3ccc4cn[nH]c4c3)c2n1 [GCN2-IN-1]
differential tumor cell killing, Mic60-silenced vs control cultures [1]: killed Mic60-silenced PC3 cells more efficiently than control cultures | proliferation (cell number) with GCN2 inhibitor ([2]; pLKO control PC3 cells): 3.3×10^5±0.62×10^5 cells | proliferation (cell number) with GCN2 inhibitor ([2]; shMic60 PC3 cells, P=0.009 vs pLKO): 1.95×10^5±0.4×10^5 cells | Annexin V-associated apoptosis [4]: activated Annexin V-associated apoptosis | caspase-dependent cell death ([5]; pLKO control PC3 cells): 8.4±6.3% | caspase-dependent cell death ([5]; shMic60 PC3 cells, P=0.04 vs pLKO): 23.1±5.6%

NC1(c2ccc(-c3nc4ccn5c(=O)[nH]nc5c4cc3-c3ccccc3)cc2)CCC1 [MK2206]
suppression of proliferation, Mic60-depleted vs control transfectants [2]: suppressed proliferation selectively of Mic60-depleted PC3 cells

CC1(C)CC(NC(=O)C[P+](c2ccccc2)(c2ccccc2)c2ccccc2)CC(C)(C)N1[O] [MitoTempo]
tumor cell invasion (Mic60-silenced cells): normalized tumor cell invasion to control levels

C/C(=N\NC(=S)N1CCC1)c1ccccn1 [NSC319726]
differential tumor cell killing, Mic60-silenced vs control cultures [1]: preferential killing against Mic60-low PC3 cells

CS(=O)(=O)N1CCC(NC(=O)c2[nH]ncc2NC(=O)c2c(Cl)cccc2Cl)CC1 [NVP-LCQ195]
differential tumor cell killing, Mic60-silenced vs control cultures [1]: preferential killing against Mic60-low PC3 cells

CC1(C)CCC(c2ccc(Cl)cc2)=C(CN2CCN(c3ccc(C(=O)NS(=O)(=O)c4ccc(N[C@H](CCN5CCOCC5)CSc5ccccc5)c(S(=O)(=O)C(F)(F)F)c4)cc3)CC2)C1 [Navitoclax]
differential tumor cell killing, Mic60-silenced vs control cultures [1]: preferential killing against Mic60-low PC3 cells

C/C(=N\NC(=O)c1cccc(S(=O)(=O)N2CCOCC2)c1)c1cc(Cl)ccc1O [SP2509]
differential tumor cell killing, Mic60-silenced vs control cultures [1]: preferential killing against Mic60-low PC3 cells

COc1cc2c(cc1OC)CN(CCc1ccc(NC(=O)c3cc(OC)c(OC)cc3NC(=O)c3cnc4ccccc4c3)cc1)CC2 [Tariquidar]
differential tumor cell killing, Mic60-silenced vs control cultures [1]: preferential killing against Mic60-low PC3 cells

COc1cc(/C=C/C(=O)CC(=O)/C=C/c2ccc(O)c(OC)c2)ccc1O [curcumin]
differential tumor cell killing, Mic60-silenced vs control cultures [1]: preferential killing against Mic60-low PC3 cells

COc1cc([C@@H]2c3cc4c(cc3[C@H](O)[C@H]3COC(=O)[C@H]23)OCO4)cc(OC)c1OC [podophyllotoxin]
differential tumor cell killing, Mic60-silenced vs control cultures [1]: preferential killing against Mic60-low PC3 cells
